In brackets after ≈: the same amount, converted by molar mass. Where two headings read alike, the source gives them in different places. Positions of bridges follow the written chain, without caps; N, C: chain ends. Non-standard residues stand in square brackets, D forms with d. Residues, ends and D or L forms follow the SMILES beside them. *: point of attachment. X1 = CC[C@H](C)CCCCC(=O)*; Dab = NCC[C@H](N)C(=O)O
What was measured:
[1] = tested on: Acinetobacter baumannii CH45
[2] = tested on: Acinetobacter baumannii CH55
[3] = tested on: Acinetobacter baumannii CH54
[4] = tested on: Acinetobacter baumannii CH39
[5] = tested on: Acinetobacter baumannii CH47
[6] = tested on: Acinetobacter baumannii CH38
[7] = tested on: Acinetobacter modestus CH43
[8] = tested on: Multi-drug resistant A. baumannii CH-46; conditions: Multi-drug resistant A. baumannii CH-46 (CH46 in Table S1, drug resistance Y); broth microplate dilution
[9] = tested on: Acinetobacter baumannii CH50
[10] = tested on: Acinetobacter baumannii CH53
[11] = tested on: Acinetobacter calcoaceticus CH37
[12] = tested on: Acinetobacter baumannii CH49
[13] = tested on: Acinetobacter ursingii CH41; conditions: CH41, A. ursingii, drug resistance N
[14] = tested on: Acinetobacter guillouiae CH42
[15] = tested on: Acinetobacter baumannii CH51
[16] = tested on: Acinetobacter baumannii CH40
[17] = tested on: Acinetobacter baumannii CH52
[18] = tested on: Acinetobacter baumannii CH48
[19] = tested on: Acinetobacter baumannii CH36
[20] = tested on: Acinetobacter septicus CH44; conditions: CH44, A. septicus, drug resistance N
[21] = tested on: Acinetobacter modestus CH43; assay: microbe, parasite or virus in culture
[22] = tested on: Acinetobacter baumannii CH54; assay: microbe, parasite or virus in culture
[23] = tested on: Acinetobacter baumannii CH36; assay: microbe, parasite or virus in culture
[24] = tested on: Acinetobacter baumannii CH55; assay: microbe, parasite or virus in culture
[25] = tested on: Acinetobacter baumannii CH53; assay: microbe, parasite or virus in culture
[26] = tested on: Acinetobacter baumannii CH51; assay: microbe, parasite or virus in culture
[27] = tested on: Acinetobacter baumannii CH38; assay: microbe, parasite or virus in culture
[28] = tested on: Acinetobacter ursingii CH41; assay: microbe, parasite or virus in culture
[29] = tested on: Acinetobacter calcoaceticus CH37; assay: microbe, parasite or virus in culture
[30] = tested on: Acinetobacter septicus CH44; assay: microbe, parasite or virus in culture
[31] = tested on: Acinetobacter baumannii CH50; assay: microbe, parasite or virus in culture
[32] = tested on: Acinetobacter baumannii CH45; assay: microbe, parasite or virus in culture
[33] = tested on: Acinetobacter baumannii CH47; assay: microbe, parasite or virus in culture
[34] = tested on: Acinetobacter baumannii CH48; assay: microbe, parasite or virus in culture
[35] = tested on: Acinetobacter baumannii CH49; assay: microbe, parasite or virus in culture
[36] = tested on: Acinetobacter baumannii CH39; assay: microbe, parasite or virus in culture
[37] = tested on: Acinetobacter baumannii CH40; assay: microbe, parasite or virus in culture
[38] = tested on: Multi-drug resistant A. baumannii CH-46; assay: microbe, parasite or virus in culture; conditions: Acinetobacter baumannii
[39] = tested on: Acinetobacter guillouiae CH42; assay: microbe, parasite or virus in culture
[40] = tested on: Acinetobacter baumannii CH52; assay: microbe, parasite or virus in culture
MDR S. aureus (CH-11) = assay type: cell-based, Staphylococcus aureus
S. aureus (ATCC 29213) = assay type: cell-based, Staphylococcus aureus; conditions: overnight 37°C
[41] = tested on: S. aureus ATCC 29213 (SA) biofilm; assay: Anti-biofilm activity, pre-formed biofilm; assay type: cell-based, Staphylococcus aureus; conditions: only at the highest concentration 100 μg/mL, 4 h, PrestoBlue
S. aureus ATCC 29213 = assay: Inhibition of bacterial adhesion, pre-coated polystyrene plates; assay type: cell-based, Staphylococcus aureus; conditions: wells pre-treated at 10 μg/mL, washed; bacteria incubated 1 to 24 h at 37°C, PrestoBlue

Which MIC [1] does the source give for CC[C@H](C)CCCCC(=O)N[C@@H](CCN)C(=O)N[C@H](C(=O)N[C@@H](CCN)C(=O)N[C@H]1CCNC(=O)[C@H]([C@@H](C)O)NC(=O)[C@H](CCN)NC(=O)[C@H](CCN)NC(=O)[C@H](CC(C)C)NC(=O)[C@@H](CC(C)C)NC(=O)[C@H](CCN)NC1=O)[C@@H](C)O [Colistin] (X1-[Dab]T[Dab][Dab][Dab][dL]L[Dab][Dab]T; lactam 4-C (inferred); N-terminus assumed) here?
The MIC was 3.91 mg/L (≈ 3.34 µM).

And the MIC [2]?
Its MIC is 7.81 mg/L (≈ 6.68 µM).

What about the MIC [3] of the same molecule?
The MIC was 5.86 mg/L (≈ 5.01 µM).

What about the MIC [4] of the same molecule?
Its MIC is 3.91 mg/L (≈ 3.34 µM).

What about the MIC [5] of the same molecule?
The MIC was 3.91 mg/L (≈ 3.34 µM).

What about the MIC [6] of the same molecule?
Its MIC is 3.91 mg/L (≈ 3.34 µM).

And the MIC [7]?
Its MIC is 7.81 mg/L (≈ 6.68 µM).

What about the MIC [8] of the same molecule?
Its MIC is 3.91 mg/L (≈ 3.34 µM).

And the MIC [9]?
Its MIC is 5.86 mg/L (≈ 5.01 µM).

And the MIC [10]?
The MIC was 3.91 mg/L (≈ 3.34 µM).

What about the MIC [11] of the same molecule?
The MIC was 3.91 mg/L (≈ 3.34 µM).

And the MIC [12]?
The MIC was 3.91 mg/L (≈ 3.34 µM).

What about the MIC [13] of the same molecule?
The MIC was 1.95 mg/L (≈ 1.67 µM).

What about the MIC [14] of the same molecule?
Its MIC is 3.91 mg/L (≈ 3.34 µM).

And the MIC [15]?
The MIC was 3.91 mg/L (≈ 3.34 µM).

And the MIC [16]?
Its MIC is 5.86 mg/L (≈ 5.01 µM).

What about the MIC [17] of the same molecule?
The MIC was 3.91 mg/L (≈ 3.34 µM).

What about the MIC [18] of the same molecule?
Its MIC is 3.91 mg/L (≈ 3.34 µM).

And the MIC [19]?
The MIC was 3.91 mg/L (≈ 3.34 µM).

And the MIC [20]?
The MIC was 1.95 mg/L (≈ 1.67 µM).

What does the source list for C[C@@H](O)[C@H]1C(=O)N2C(C(=O)O)=C(SCCN=CN)C[C@H]12 [Imipenem]?
MIC [21]: 0.5 mg/L (≈ 1.67 µM); MIC [22]: 7.81 mg/L (≈ 26.1 µM); MIC [23]: 250 mg/L (≈ 835 µM); MIC [24]: 46.9 mg/L (≈ 157 µM); MIC [25]: 31.2 mg/L (≈ 104 µM); MIC [26]: 31.2 mg/L (≈ 104 µM); MIC [27]: 125 mg/L (≈ 418 µM); MIC [28]: 1 mg/L (≈ 3.34 µM); MIC [29]: 0.5 mg/L (≈ 1.67 µM); MIC [30]: 1.46 mg/L (≈ 4.88 µM); MIC [31]: 62.5 mg/L (≈ 209 µM); MIC [32]: 125 mg/L (≈ 418 µM); MIC [33]: 3.91 mg/L (≈ 13.1 µM); MIC [34]: 7.81 mg/L (≈ 26.1 µM); MIC [35]: 62.5 mg/L (≈ 209 µM); MIC [36]: 15.6 mg/L (≈ 52.2 µM); MIC [37]: 31.2 mg/L (≈ 104 µM); MIC [38]: 250 mg/L (≈ 835 µM); MIC [39]: 7.81 mg/L (≈ 26.1 µM); MIC [40]: 31.2 mg/L (≈ 104 µM)

For COc1cccc(OC)c1C(=O)N[C@@H]1C(=O)N2[C@@H]1SC(C)(C)[C@@H]2C(=O)O [Methicillin], which “Frequency of Resistance to antibiotics” value (MDR S. aureus (CH-11)) is on record?
Its value is “resistant”.

What about the “Frequency of Resistance to antibiotics” value (S. aureus (ATCC 29213); 2X MIC in Mueller-Hinton agar, resistant colonies / CFU of inoculum) of the same molecule?
Its value is < 3.72 × 10^–10.

And the “Frequency of Resistance to antibiotics” value (S. aureus (ATCC 29213); 3X MIC in Mueller-Hinton agar)?
Its value is < 3.72 × 10^–10.

And the “Frequency of Resistance to antibiotics” value (S. aureus (ATCC 29213); 4X MIC in Mueller-Hinton agar)?
The value was < 3.72 × 10^–10.

And the “Frequency of Resistance to antibiotics” value (S. aureus (ATCC 29213); 5X MIC in Mueller-Hinton agar)?
The value was < 3.72 × 10^–10.

What about the “Frequency of Resistance to antibiotics” value (S. aureus (ATCC 29213); 10X MIC in Mueller-Hinton agar) of the same molecule?
Its value is < 3.72 × 10^–10.

For CN[C@H](CC(C)C)C(=O)N[C@H]1C(=O)N[C@@H](CC(N)=O)C(=O)N[C@H]2C(=O)N[C@H]3C(=O)N[C@H](C(=O)N[C@H](C(=O)O)c4cc(O)cc(O)c4-c4cc3ccc4O)[C@H](O)c3ccc(c(Cl)c3)Oc3cc2cc(c3O[C@@H]2O[C@H](CO)[C@@H](O)[C@H](O)[C@H]2O[C@H]2C[C@](C)(N)[C@H](O)[C@H](C)O2)Oc2ccc(cc2Cl)[C@H]1O [vancomycin], which “Effect on viability of pre-formed biofilm” value [41] is on record?
Its value is “partially effective”.

B1: platelet factor 4: control cationic peptide (protein, UniProt P02776 32-101, looked up)
Platelet factor 4: EAEEDGDLQCLCVKTTSQVRPRHITSLEVIKAGPHCPTAQLIATLKNGRKICLDLQAPLYKKIIKKLLES
For B1, which “Inhibition of cell adhesion / biofilm formation on pre-treated polystyrene wells” value (S. aureus ATCC 29213) is on record?
Its value is “no effect on biofilm formation”.
